# Laboratory results from PMC7582905, “Effect of Disulfide Cyclization of Ultrashort Cationic Lipopeptides on Antimicrobial Activity and Cytotoxicity” (International Journal of Molecular Sciences, 2020).
# Where a SMILES comes first, the peptide text is derived from it. Bridges are numbered along the chain shown (N, C = ends). The star is where a group is joined. Palmitoyl = CCCCCCCCCCCCCCCC(=O)*
# Experiments:
# Type in all cases: cell-based
# [1] = system: human red blood cells (hRBCs); experiment: Hemolysis assay; conditions: peptide concentration causing 50% hemolysis; 4% (v/v) hRBCs in PBS, 1 h, 37 °C, absorbance 540 nm, triplicate
# Protocol: The hemolysis assay was performed by using the method reported previously. Fresh human red blood cells (hRBCs) with anticoagulant (EDTA) were rinsed three times with a PBS by centrifugation at 800× g for 10 min and diluted with PBS. The lipopeptides were serially diluted on a 96-well microtiter polystyrene plate and hRBCs were added up to a final volume of 100 μL. The peptide concentration ranged between 0.5 and 256 μg/mL and the final hRBCs concentration was 4% (v/v). Controls for zero hemolysis (blank) and 100% hemolysis consisted of hRBCs suspended in PBS and 1% of Triton-X 100, respectively. The plate was incubated for 1 h at 37 °C and then centrifuged (800× g, 10 min, 4 °C). Subsequently, the supernatant was […] to new microtiter plates and the absorbance at 540 nm was measured. All experiments were conducted in triplicate. HC50 was calculated using an ic50.tk tool. Protocol of the study received approval from the local Bioethics Committee at the Medical University of Gdańsk (NKBBN/262/2019, approval date: 10 June 2019).
# [2] = system: Candida albicans ATCC 10231; conditions: ATCC 10231, 24 h
# In short: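 MIC = lowest lipopeptide concentration (range 0.5–256 μg/mL) with no noticeable growth, scored by eye. Bacteria tested in MHB at 5 × 10^5 CFU/mL for 18 h; Candida in RPMI-1640 + 2% D-glucose at 2 × 10^3 CFU/mL for 24 h; both at 37 °C.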
# [3] = system: Staphylococcus epidermidis ATCC 14990; conditions: ATCC 14990, 18 h
# In short: (§1)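 Broth microdilution per CLSI: bacteria at 5 × 10^5 CFU/mL in MHB, 18 h, and yeasts at 2 × 10^3 CFU/mL in RPMI-1640 with 2% D-glucose, 24 h, both at 37 °C, lipopeptides 0.5–256 μg/mL. MIC is lowest concentration visibly inhibiting growth; triplicate.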
# [4] = system: Pseudomonas aeruginosa ATCC 9027; conditions: ATCC 9027, 18 h
# In short: as §1
# [5] = system: human cervical adenocarcinoma cell line (HeLa S3); experiment: MTT assay; conditions: 24 h incubation at 37 °C, six replicates per concentration, repeated at least twice
# Protocol: (§2) To assess the cytotoxicity of the test lipopeptides (IC50), the classic MTT assay on 96-well polystyrene plates was performed for human keratinocytes (HaCaT) and human cervical adenocarcinoma cell line (HeLa S3) acquired from the ATCC. The assay utilizes colorimetric determination of the cell metabolic activity and the color intensity reflects the number of live cells that can be measured spectrophotometrically. The cell line was cultured in a Dulbecco’s modified Eagle Medium (Invitrogen) supplemented with 10% fetal bovine serum (v/v), 100 units/mL of penicillin, 100 μg/mL of streptomycin, and 2 mM l-glutamine and was stored at 37 °C in a humidified 5% CO2 incubator. Briefly, a day after plating of 500 cells per well, a series of concentrations (0.1–200 μg/mL) of the test compounds were applied. DMSO was added to the control cells at a final concentration of 1.0% (v/v), which was related to the maximal concentration of the solvent compounds used in the experiment. After 24 h of incubation with the lipopeptides at 37 °C in a humidified 5% CO2 incubator, a medium containing 1 mg/mL of MTT (3-(4,5-dimethylthiazol-2-yl)-2,5-diphenyltetrazolium bromide) was added to the wells up to a final concentration of 0.5 mg/mL. Subsequently, the plates were incubated at 37 °C for 4 h. Then, the medium was removed by suction, and the formazan product was solubilized with DMSO. The background absorbance at 630 nm was subtracted from that at 570 nm for each well (Epoch, BioTek Instruments, Winooski, VT, USA). Six replicates were conducted for each concentration. All experiments were repeated at least twice and the resulting IC50 values were calculated with a GraFit 7 software (v. 7.0, Erithacus, Berkley, CA, USA).
# [6] = system: human keratinocytes (HaCaT); experiment: MTT assay; conditions: 24 h incubation at 37 °C, six replicates per concentration, repeated at least twice
# Protocol: as §2
# [7] = system: Candida lipolytica PCM 2680-FY; conditions: 24 h
# Protocol: (§3) The Staphylococcus aureus ATCC 25923, Staphylococcus epidermidis ATCC 14990, Escherichia coli ATCC 25922, Pseudomonas aeruginosa ATCC 9027, Candida albicans ATCC 10231, Candida glabrata ATCC 15126, Candida lipolytica PCM 2680-FY, and Candida tropicalis PCM 2709-FY strains were acquired from the Polish Collection of Microorganisms (PCM, Polish Academy of Sciences, Wrocław, Poland) and from the American Type Culture Collection (ATCC). All the strains were stored at −80 °C in Roti-Store cryo vials and before the tests were transferred into fresh Mueller–Hinton broth (MHB, Biocorp, Warsaw, Poland) for bacteria or RPMI-1640 (Sigma-Aldrich, Steinheim, Germany) for fungi and incubated for 24 h at 37 °C. Then, the cultures were seeded on Mueller–Hinton agar (BioMaxima, Lublin, Poland) or Sabouraud dextrose agar (SDA, BioMaxima, Lublin, Poland) plates, respectively, and incubated as just mentioned. These agar cultures were used for further microbiological assays. Cell densities for all assays were adjusted spectrophotometrically (Multiskan GO Microplate Spectrophotometer, Thermo Fisher Scientific, Vantaa, Finland) at 600 and 660 nm for bacteria and fungi, respectively.
# (§4) The assay was performed to evaluate the effect of the lipopeptides in preventing biofilm formation. The preparation of inoculums was followed by a ca. 500-fold dilution of the 24 h cultures of microorganisms. Briefly, 50 μL of the compounds in the concentration range, diluted in appropriate medium, were prepared on 96-well polystyrene flat-bottom plates. Subsequently, the 50 μL of the bacterial/fungal inoculums were added to reach the same microbial density as that in the MBEC assay. After 24 h of incubation at 37 °C, the wells were rinsed three times with PBS and the fresh media with resazurin (4 g/L) were added. The MBICs were read after 1 h. All experiments were conducted in triplicate.
# [8] = system: Candida albicans ATCC 10231; conditions: ATCC 10231, 24 h; remark: listed apart in the source
# Protocol: as §3, §4
# [9] = system: Escherichia coli ATCC 25922; conditions: ATCC 25922, 24 h
# Protocol: as §3, §4
# [10] = system: Staphylococcus aureus ATCC 25923; conditions: ATCC 25923, 24 h
# Protocol: as §3, §4
# [11] = system: Candida glabrata ATCC 15126; conditions: ATCC 15126, 24 h
# Protocol: as §3, §4
# [12] = system: Pseudomonas aeruginosa ATCC 9027; conditions: ATCC 9027, 24 h
# Protocol: as §3, §4
smiles,measurement,setting,value
"CCCCCCCCCCCCCCCC(=O)N[C@H]1CSSC[C@@H](C(N)=O)NC(=O)[C@H](CCCNC(=N)N)NC(=O)[C@H](CCCCN)NC(=O)[C@H](CCCCN)NC(=O)[C@H](CCCCN)NC1=O [C6, C16-CKKKRC-NH2] (Palmitoyl-CKKKRC-NH2; disulfide 1-6)",HC50,[1],71.0 ± 6.4 µg/mL
same,MIC C. albicans,[2],4 µg/mL
same,MIC S. epidermidis,[3],8 µg/mL
same,MIC P. aeruginosa,[4],128 µg/mL
same,HeLa IC50,[5],30.4 ± 2.5 µg/mL
same,HaCaT IC50,[6],45.7 ± 13.5 µg/mL
same,MBIC C. lipolytica,[7],8 µg/mL
same,MBIC C. albicans,[8],16 µg/mL
same,MBIC E. coli,[9],64 µg/mL
same,MBIC S. aureus,[10],32 µg/mL
same,MBIC C. glabrata,[11],8 µg/mL
same,MBIC P. aeruginosa,[12],64 µg/mL
